Data: the Kinase Knowledgebase extract (Sharma et al. 2016)

Key:
[1] = target: PIK3CD (Human) (UniProt O00329); experiment: Enzyme Assay
[2] = target: PIK3CG (human) (UniProt P48736); experiment: Enzyme Assay
[3] = target: PIK3CD (Human) (UniProt O00329); experiment: Cell-Based Assay; conditions: raji
[4] = target: PIK3CA (human) (UniProt P42336); experiment: Enzyme Assay
[5] = target: PIK3CB (Human) (UniProt P42338); experiment: Enzyme Assay
Sequence of PIK3CB (Human) (P42338 whole entry, looked up): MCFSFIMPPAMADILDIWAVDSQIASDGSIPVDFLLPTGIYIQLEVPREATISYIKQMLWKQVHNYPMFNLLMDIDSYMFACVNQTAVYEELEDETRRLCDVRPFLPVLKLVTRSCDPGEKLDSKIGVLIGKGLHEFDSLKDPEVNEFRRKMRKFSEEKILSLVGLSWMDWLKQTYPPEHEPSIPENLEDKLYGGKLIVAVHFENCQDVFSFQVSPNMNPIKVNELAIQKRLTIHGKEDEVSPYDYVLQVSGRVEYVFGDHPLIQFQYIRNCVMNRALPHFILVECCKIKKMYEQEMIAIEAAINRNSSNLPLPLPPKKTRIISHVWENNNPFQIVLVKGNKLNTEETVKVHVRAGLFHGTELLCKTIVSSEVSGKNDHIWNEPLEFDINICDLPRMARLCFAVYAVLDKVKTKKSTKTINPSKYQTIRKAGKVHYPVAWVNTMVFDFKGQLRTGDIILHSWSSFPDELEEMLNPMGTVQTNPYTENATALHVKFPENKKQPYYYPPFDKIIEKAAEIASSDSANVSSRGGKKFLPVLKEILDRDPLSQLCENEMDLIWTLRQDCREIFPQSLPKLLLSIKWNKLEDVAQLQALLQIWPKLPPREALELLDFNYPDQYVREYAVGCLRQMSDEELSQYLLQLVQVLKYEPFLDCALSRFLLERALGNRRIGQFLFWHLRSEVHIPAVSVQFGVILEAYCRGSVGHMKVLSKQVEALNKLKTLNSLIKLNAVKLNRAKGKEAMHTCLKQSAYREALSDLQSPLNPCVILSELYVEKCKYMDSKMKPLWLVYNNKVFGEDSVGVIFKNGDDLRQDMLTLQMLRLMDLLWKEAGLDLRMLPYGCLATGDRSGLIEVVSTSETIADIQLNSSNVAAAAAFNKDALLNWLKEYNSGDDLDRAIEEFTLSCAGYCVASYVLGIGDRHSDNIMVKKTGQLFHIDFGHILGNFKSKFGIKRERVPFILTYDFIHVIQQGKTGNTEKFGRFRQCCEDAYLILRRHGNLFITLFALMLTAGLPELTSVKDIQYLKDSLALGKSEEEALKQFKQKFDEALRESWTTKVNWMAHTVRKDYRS

Sequence of PIK3CG (human) (P48736 whole entry, looked up): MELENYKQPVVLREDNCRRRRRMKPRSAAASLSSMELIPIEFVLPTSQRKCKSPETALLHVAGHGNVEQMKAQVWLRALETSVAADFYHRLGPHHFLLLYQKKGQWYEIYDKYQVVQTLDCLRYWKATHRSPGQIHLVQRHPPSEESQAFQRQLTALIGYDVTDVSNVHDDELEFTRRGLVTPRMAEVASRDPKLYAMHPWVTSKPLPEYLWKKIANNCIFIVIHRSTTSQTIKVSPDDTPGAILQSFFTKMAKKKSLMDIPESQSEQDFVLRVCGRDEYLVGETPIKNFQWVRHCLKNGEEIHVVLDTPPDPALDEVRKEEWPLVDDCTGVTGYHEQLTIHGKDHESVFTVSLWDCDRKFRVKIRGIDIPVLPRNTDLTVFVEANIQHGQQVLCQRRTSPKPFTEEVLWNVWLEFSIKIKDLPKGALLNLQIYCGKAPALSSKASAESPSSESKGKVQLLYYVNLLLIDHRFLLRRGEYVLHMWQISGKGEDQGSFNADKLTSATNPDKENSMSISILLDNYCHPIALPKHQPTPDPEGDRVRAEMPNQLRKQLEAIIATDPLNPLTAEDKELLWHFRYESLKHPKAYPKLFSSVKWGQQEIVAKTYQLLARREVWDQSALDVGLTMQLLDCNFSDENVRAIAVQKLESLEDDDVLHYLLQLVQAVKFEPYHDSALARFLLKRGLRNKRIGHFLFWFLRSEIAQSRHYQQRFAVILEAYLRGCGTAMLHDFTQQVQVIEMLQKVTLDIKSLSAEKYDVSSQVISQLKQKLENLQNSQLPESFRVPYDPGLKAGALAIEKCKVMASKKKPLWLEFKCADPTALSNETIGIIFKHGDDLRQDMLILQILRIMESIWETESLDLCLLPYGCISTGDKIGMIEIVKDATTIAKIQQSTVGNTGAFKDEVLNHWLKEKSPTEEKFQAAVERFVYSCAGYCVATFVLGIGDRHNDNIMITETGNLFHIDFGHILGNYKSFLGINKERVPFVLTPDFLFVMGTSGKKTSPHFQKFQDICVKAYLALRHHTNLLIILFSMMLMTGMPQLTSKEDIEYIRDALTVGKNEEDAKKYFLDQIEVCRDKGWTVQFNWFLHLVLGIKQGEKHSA
Sequence of PIK3CD (Human) (O00329 whole entry, looked up): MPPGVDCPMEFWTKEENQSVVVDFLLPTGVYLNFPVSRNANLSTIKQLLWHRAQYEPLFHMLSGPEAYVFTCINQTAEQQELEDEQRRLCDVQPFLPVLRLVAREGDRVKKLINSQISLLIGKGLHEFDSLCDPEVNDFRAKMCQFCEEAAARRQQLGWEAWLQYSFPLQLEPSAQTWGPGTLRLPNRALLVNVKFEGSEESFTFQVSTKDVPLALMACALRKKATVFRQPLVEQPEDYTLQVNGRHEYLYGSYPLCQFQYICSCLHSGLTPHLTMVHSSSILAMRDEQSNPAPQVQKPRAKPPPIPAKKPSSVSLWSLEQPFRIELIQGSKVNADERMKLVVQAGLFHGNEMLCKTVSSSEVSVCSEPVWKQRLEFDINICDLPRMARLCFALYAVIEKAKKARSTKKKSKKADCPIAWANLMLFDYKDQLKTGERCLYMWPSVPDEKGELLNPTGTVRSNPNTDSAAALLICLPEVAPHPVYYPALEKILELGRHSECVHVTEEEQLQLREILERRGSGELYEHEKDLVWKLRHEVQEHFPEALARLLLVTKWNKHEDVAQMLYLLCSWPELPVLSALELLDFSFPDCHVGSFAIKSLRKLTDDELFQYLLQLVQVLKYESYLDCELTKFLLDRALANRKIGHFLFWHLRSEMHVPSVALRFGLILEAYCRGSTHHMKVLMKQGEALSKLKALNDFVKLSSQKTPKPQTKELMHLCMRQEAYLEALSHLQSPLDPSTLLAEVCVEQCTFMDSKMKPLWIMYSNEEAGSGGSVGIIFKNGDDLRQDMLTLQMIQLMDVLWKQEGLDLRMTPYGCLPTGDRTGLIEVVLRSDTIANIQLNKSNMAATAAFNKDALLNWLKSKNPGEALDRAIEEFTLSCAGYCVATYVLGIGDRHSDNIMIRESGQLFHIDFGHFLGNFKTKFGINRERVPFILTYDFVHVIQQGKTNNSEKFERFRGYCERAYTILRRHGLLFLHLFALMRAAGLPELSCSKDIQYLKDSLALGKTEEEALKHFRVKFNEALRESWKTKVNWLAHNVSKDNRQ
Sequence of PIK3CA (human) (P42336 whole entry, looked up): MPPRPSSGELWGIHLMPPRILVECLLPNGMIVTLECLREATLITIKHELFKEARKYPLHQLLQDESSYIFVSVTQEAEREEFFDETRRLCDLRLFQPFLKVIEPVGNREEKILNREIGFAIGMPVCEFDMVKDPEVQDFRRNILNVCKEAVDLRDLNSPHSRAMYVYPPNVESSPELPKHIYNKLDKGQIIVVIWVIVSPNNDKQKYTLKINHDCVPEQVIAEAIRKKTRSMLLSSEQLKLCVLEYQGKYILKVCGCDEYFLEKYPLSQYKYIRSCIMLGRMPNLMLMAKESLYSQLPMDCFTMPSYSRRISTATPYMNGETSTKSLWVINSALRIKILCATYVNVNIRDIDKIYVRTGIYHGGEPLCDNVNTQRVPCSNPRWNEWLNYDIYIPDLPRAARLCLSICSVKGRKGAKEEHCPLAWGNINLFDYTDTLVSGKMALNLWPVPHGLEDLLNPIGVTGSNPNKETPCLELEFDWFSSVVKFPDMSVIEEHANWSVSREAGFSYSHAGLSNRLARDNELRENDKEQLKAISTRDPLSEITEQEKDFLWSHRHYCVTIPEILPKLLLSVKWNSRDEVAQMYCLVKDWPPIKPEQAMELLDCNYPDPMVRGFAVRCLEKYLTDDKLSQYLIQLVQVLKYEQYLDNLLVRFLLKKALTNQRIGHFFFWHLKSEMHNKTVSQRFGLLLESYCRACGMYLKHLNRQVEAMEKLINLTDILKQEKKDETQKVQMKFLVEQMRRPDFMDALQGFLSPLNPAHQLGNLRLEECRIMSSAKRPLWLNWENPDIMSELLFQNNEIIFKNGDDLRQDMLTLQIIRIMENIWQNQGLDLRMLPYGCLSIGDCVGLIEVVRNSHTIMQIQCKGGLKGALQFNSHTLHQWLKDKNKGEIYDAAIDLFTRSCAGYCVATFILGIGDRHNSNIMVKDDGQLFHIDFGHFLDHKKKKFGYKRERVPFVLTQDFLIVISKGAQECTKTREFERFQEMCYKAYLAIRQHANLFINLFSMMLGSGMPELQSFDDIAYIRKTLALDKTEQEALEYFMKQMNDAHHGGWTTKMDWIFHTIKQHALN

Structure (SMILES) | IC50 [1] [µM] | IC50 [2] [µM] | IC50 [3] [µM] | IC50 [4] [µM] | IC50 [5] [µM]
C[C@H](NC(=O)c1nc(-c2cscn2)cnc1N)c1cc2cccc(Cl)c2c(=O)n1-c1ccccc1 | ≥ 10 | 0.1 to 1 | 0.1 to 1 |  | 
COc1cc(-c2cccc3cc([C@H](C)NC(=O)c4ncc(C)nc4N)n(-c4ccccc4)c(=O)c23)ccn1 |  |  | 0.1 to 1 | ≥ 10 | ≥ 10
C[C@H](NC(=O)c1c(N)nn2cccnc12)c1cc2cccc(C#CCNC(=O)C3CC(=O)CC(=O)C3)c2c(=O)n1-c1ccccc1 | 0.1 to 1 | < 0.1 |  |  | 
C[C@H](NC(=O)c1c(N)nn2cccnc12)c1cc2cccc(/C=N\O)c2c(=O)n1-c1ccccc1 |  | 0.1 to 1 |  | ≥ 10 | ≥ 10
C[C@H](NC(=O)c1c(N)nn2cccnc12)c1cc2cccc(Cl)c2c(=O)n1CC(O)CO (some centres not stated) | 0.1 to 1 | 0.1 to 1 | < 0.1 |  | < 0.1
C=CC(=O)NCC#Cc1cccc2cc([C@H](C)NC(=O)c3c(N)nn4cccnc34)n(-c3ccccc3)c(=O)c12 | 0.1 to 1 | < 0.1 | < 0.1 |  | 
C[C@H](NC(=O)c1c(N)nn2cccnc12)c1cc2cccc(Cl)c2c(=O)n1C | 0.1 to 1 | 0.1 to 1 | < 0.1 |  | < 0.1
COc1cccc2c(Br)c([C@H](C)NC(=O)c3c(N)nn4cccnc34)n(-c3ccccc3)c(=O)c12 |  | 0.1 to 1 |  | ≥ 10 | ≥ 10
C[C@H](NC(=O)c1c(N)nn2cccnc12)c1cc2cccc(-c3cncc(NS(C)(=O)=O)c3)c2c(=O)n1-c1ccccc1 | 0.1 to 1 | 0.1 to 1 | < 0.1 |  | ≥ 10
CNCc1cccc2cc([C@H](C)NC(=O)c3c(N)nn4cccnc34)n(-c3ccccc3)c(=O)c12 |  | ≥ 10 |  | ≥ 10 | ≥ 10
C[C@H](NC(=O)c1c(N)nn2cccnc12)c1nc2cccc(Cl)c2c(=O)n1-c1ccccc1 | < 0.1 | < 0.1 | < 0.1 |  | 0.1 to 1
C[C@H](NC(=O)c1nc(-c2cccc(NS(=O)(=O)N(C)C)c2)cnc1N)c1cc2cccc(Cl)c2c(=O)n1-c1ccccc1 | 0.1 to 1 | < 0.1 | < 0.1 |  | 0.1 to 1
C[C@H](NC(=O)c1c(N)ncc2cccnc12)c1cc2cccc(N3CCOCC3)c2c(=O)n1-c1ccccc1 |  | 0.1 to 1 | < 0.1 | ≥ 10 | ≥ 10
CNc1cccc2cc([C@H](C)NC(=O)c3c(N)nn4cccnc34)n(-c3ccccc3)c(=O)c12 | ≥ 10 |  | 0.1 to 1 |  | ≥ 10
C[C@H](NC(=O)c1nc(-c2csc(S(C)(=O)=O)n2)cnc1N)c1cc2cccc(Cl)c2c(=O)n1-c1ccccc1 | ≥ 10 |  |  | ≥ 10 | 
CC(C)Oc1ccc(-c2cnc(N)c(C(=O)N[C@@H](C)c3cc4cccc(Cl)c4c(=O)n3-c3ccccc3)n2)cn1 |  |  | 0.1 to 1 | ≥ 10 | ≥ 10
C[C@H](NC(=O)c1c(N)nn2cccnc12)c1cc2scc(Cl)c2c(=O)n1-c1ccccc1 | 0.1 to 1 | < 0.1 | < 0.1 |  | 0.1 to 1
C[C@H](NC(=O)c1cncc2cccnc12)c1cc2cccc(Cl)c2c(=O)n1-c1ccccc1 | 0.1 to 1 |  | < 0.1 | ≥ 10 | 
C[C@H](NC(=O)c1nccnc1N)c1cc2cccc(-c3cnn(C)c3)c2c(=O)n1-c1ccccc1 |  | 0.1 to 1 | < 0.1 | ≥ 10 | ≥ 10
COc1ncc(-c2cccc3cc([C@H](C)NC(=O)c4c(N)nn5cccnc45)n(-c4ccccc4)c(=O)c23)s1 |  | 0.1 to 1 |  | ≥ 10 | ≥ 10
C[C@H](NC(=O)c1c(N)nn2cccnc12)c1c(Br)c2cccc(Cl)c2c(=O)n1-c1ccccc1 | 0.1 to 1 | < 0.1 | < 0.1 |  | 
C[C@H](NC(=O)c1c(N)nn2cccnc12)c1cc2cccc(-c3cnn(C)c3)c2c(=O)n1-c1ccccc1 |  | 0.1 to 1 | < 0.1 | ≥ 10 | ≥ 10
C[C@H](NC(=O)c1c(N)nn2cccnc12)c1cc2cccc(OC(F)(F)F)c2c(=O)n1-c1ccccc1 |  |  |  | ≥ 10 | ≥ 10
C=CCn1c([C@H](C)NC(=O)c2c(N)nn3cccnc23)cc2cccc(Cl)c2c1=O | 0.1 to 1 | 0.1 to 1 | < 0.1 |  | < 0.1
COc1ccc(-c2cnc(N)c(C(=O)N[C@@H](C)c3cc4cccc(Cl)c4c(=O)n3-c3ccccc3)n2)cc1NS(C)(=O)=O |  | < 0.1 | < 0.1 | 0.1 to 1 | 0.1 to 1
C[C@H](NC(=O)c1c(N)nn2cccnc12)c1cc2cccc(CNC[C@@H]3CCCO3)c2c(=O)n1-c1ccccc1 |  |  |  | ≥ 10 | ≥ 10
C[C@H](NC(=O)c1c(N)nn2cccnc12)c1cc2cccc(C#CCNC(=O)c3ccc(C#N)o3)c2c(=O)n1-c1ccccc1 |  | 0.1 to 1 | < 0.1 | 0.1 to 1 | 
C[C@H](NC(=O)c1c(N)nn2cccnc12)c1cc2cccc(Cl)c2c(=O)n1-c1ccccc1 | 0.1 to 1 |  | < 0.1 |  | 0.1 to 1

Structure (SMILES) | IC50 [1] [µM] | IC50 [2] [µM] | IC50 [3] [µM] | IC50 [4] [µM] | IC50 [5] [µM]
C[C@H](NC(=O)c1c(N)nn2cccnc12)c1cc2cccc(Cl)c2c(=O)n1-c1cccc(F)c1 | 0.1 to 1 | < 0.1 | < 0.1 |  | 0.1 to 1
C[C@H](NC(=O)c1nccnc1N)c1cc2cccc(Cl)c2c(=O)n1-c1ccccc1 | < 0.1 | 0.1 to 1 | < 0.1 |  | 0.1 to 1
COc1cccc2c(C)c([C@H](C)NC(=O)c3c(N)nn4cccnc34)n(-c3ccccc3)c(=O)c12 |  | 0.1 to 1 |  | ≥ 10 | ≥ 10
C[C@H](NC(=O)c1cnn2cccnc12)c1cc2cccc(C#CCNC(=O)[C@@H]3CCCO3)c2c(=O)n1-c1ccccc1 |  | < 0.1 | < 0.1 | 0.1 to 1 | 0.1 to 1
COc1ccc(-c2cccc3cc([C@H](C)NC(=O)c4c(N)nn5cccnc45)n(-c4ccccc4)c(=O)c23)cn1 |  | 0.1 to 1 | < 0.1 | ≥ 10 | ≥ 10
C[C@H](NC(=O)c1c(N)nn2cccnc12)c1cc2cccc(C#N)c2c(=O)n1-c1ccccc1 |  | 0.1 to 1 | < 0.1 | ≥ 10 | 
C[C@H](NC(=O)c1nc(-c2cnn(C)c2)cnc1N)c1cc2cccc(Cl)c2c(=O)n1-c1ccccc1 | ≥ 10 |  | 0.1 to 1 |  | 
C[C@H](NC(=O)c1c(N)ncc2cccnc12)c1cc2cccc(Cl)c2c(=O)n1-c1ccccc1 | 0.1 to 1 | 0.1 to 1 | < 0.1 |  | 0.1 to 1
C[C@H](NC(=O)c1c(N)nn2cccnc12)c1cc2cccc(Cl)c2c(=O)n1CCNCCO | 0.1 to 1 |  |  |  | < 0.1
C[C@H](NC(=O)c1c(N)nn2cccnc12)c1cc2cccc(C3CC3)c2c(=O)n1-c1ccccc1 |  |  | 0.1 to 1 | ≥ 10 | ≥ 10
C[C@H](NC(=O)c1c(N)nn2cccnc12)c1cc2cccc(-c3cccnc3)c2c(=O)n1-c1ccccc1 | 0.1 to 1 | 0.1 to 1 | < 0.1 |  | ≥ 10
C[C@H](NC(=O)c1nc(-c2cccc(O)c2)cnc1N)c1cc2cccc(Cl)c2c(=O)n1-c1ccccc1 | ≥ 10 |  | 0.1 to 1 | ≥ 10 | 
C[C@H](NC(=O)c1c(N)nn2cccnc12)c1c(C#N)c2cccc(F)c2c(=O)n1-c1ccccc1 | 0.1 to 1 | 0.1 to 1 | < 0.1 |  | 0.1 to 1
COc1cccc2cc([C@H](C)NC(=O)c3c(N)nn4cccnc34)n(-c3ccccc3)c(=O)c12 |  |  | 0.1 to 1 | ≥ 10 | ≥ 10
CC[C@H](NC(=O)c1c(N)nn2cccnc12)c1cc2cccc(Cl)c2c(=O)n1-c1ccccc1 | < 0.1 | 0.1 to 1 | < 0.1 |  | < 0.1
Nc1nn2cccnc2c1C(=O)N1CCC[C@H]1c1cc2cccc(Cl)c2c(=O)n1-c1ccccc1 | ≥ 10 |  |  | ≥ 10 | 
Nc1nccnc1C(=O)N1CCC[C@H]1c1cc2cccc(Cl)c2c(=O)n1-c1ccccc1 |  | ≥ 10 |  | ≥ 10 | ≥ 10
C[C@H](NC(=O)c1c(N)nn2cccnc12)c1cc2ccccc2c(=O)n1-c1ccccc1 |  | 0.1 to 1 | 0.1 to 1 | ≥ 10 | 
COc1cc(-c2cccc3cc([C@H](C)NC(=O)c4c(N)ncc5cccnc45)n(-c4ccccc4)c(=O)c23)ccn1 | 0.1 to 1 | < 0.1 | < 0.1 |  | ≥ 10
COc1ccc(-c2cnc(N)c(C(=O)N[C@@H](C)c3cc4cccc(Cl)c4c(=O)n3-c3ccccc3)n2)cc1F |  |  |  | ≥ 10 | ≥ 10
Cc1ccn2nc(N)c(C(=O)N[C@@H](C)c3cc4cccc(Cl)c4c(=O)n3-c3ccccc3)c2n1 | 0.1 to 1 | 0.1 to 1 | < 0.1 |  | < 0.1
CC(C)Oc1cc(-c2cccc3cc([C@H](C)NC(=O)c4c(N)nn5cccnc45)n(-c4ccccc4)c(=O)c23)ccn1 |  | 0.1 to 1 | < 0.1 | ≥ 10 | 
COc1cncc(-c2cccc3cc([C@H](C)NC(=O)c4c(N)nn5cccnc45)n(-c4ccccc4)c(=O)c23)c1 | 0.1 to 1 | < 0.1 | < 0.1 |  | ≥ 10
Cc1c([C@H](C)NC(=O)c2c(N)nn3cccnc23)n(-c2ccccc2)c(=O)c2c(F)cccc12 | 0.1 to 1 | < 0.1 | < 0.1 |  | 0.1 to 1
Cc1cnc(C(=O)N[C@@H](C)c2c(Br)c3cccc(Cl)c3c(=O)n2-c2ccccc2)c(N)n1 |  |  |  | ≥ 10 | ≥ 10
CNCCn1c([C@H](C)NC(=O)c2c(N)nn3cccnc23)cc2cccc(Cl)c2c1=O | < 0.1 |  |  |  | < 0.1
C[C@H](NC(=O)c1cnc2cccnn12)c1cc2cccc(Cl)c2c(=O)n1-c1ccccc1 | 0.1 to 1 |  | 0.1 to 1 |  | 
